Experimental data from patent US20020103377A1, “Piperidinyloxy and pyrrolidinyloxy oxazolidinone antibacterials” (priority 1999, published 2002).
In brackets after ≈: the same amount, converted by molar mass.

Experiments:
[1] = tested on: MRSA OC 2878; assay: MIC by microdilution broth method (NCCLS), MRSA OC 2878; assay type: cell-based, Staphylococcus aureus; settings: cation adjusted Mueller-Hinton broth, 35° C., 16-20 hours; for MIC: Staphylococcus aureus, MRSA, read-out: MIC (μg/mL) MRSA OC 2878
Description: (§1) Minimal inhibitory concentration (MIC) has been an indicator of in vitro antibacterial activity widely used in the art. The in vitro antimicrobial activity of the compounds was determined by the microdilution broth method following the test method from the National Committee for Laboratory Standards (NCCLS). This method is described in the NCCLS Document M7-A4, Vol. 17, No.2, “Methods for Dilution Antimicrobial Susceptibility Test for Bacteria that Grow Aerobically-Fourth Edition”, which is incorporated herein by reference.
(§2) In this method two-fold serial dilutions of drug in cation adjusted Mueller-Hinton broth are added to wells in microdilution trays. The test organisms are prepared by adjusting the turbidity of actively growing broth cultures so that the final concentration of test organism after it is added to the wells is approximately 5×10^4 CFU/well.
(§3) Following inoculation of the microdilution trays, the trays are incubated at 35° C. for 16-20 hours and then read. […] The amount of growth in the wells containing the test compound is compared with the amount of growth in the growth-control wells (no test compound) used in each tray. As set forth in Table 1, compounds of the present invention were tested against a variety of Gram positive and Gram negative pathogenic bacteria resulting in a range of activities, from 1 to ≧128 μg/mL depending on the organism tested.

[2] = tested on: S. aureus; assay: MIC by microdilution broth method (NCCLS), S. aureus Broth; assay type: cell-based; settings: cation adjusted Mueller-Hinton broth, 35° C., 16-20 hours; for MIC: Staphylococcus aureus, read-out: MIC (μg/mL) S. aureus Broth
Description: as §1, §2, §3

[3] = tested on: E. faecium OC3312; assay: MIC by microdilution broth method (NCCLS), E. faecium OC3312; assay type: cell-based; settings: cation adjusted Mueller-Hinton broth, 35° C., 16-20 hours; for MIC: Enterococcus faecium, OC3312, microdilution broth, read-out: MIC (μg/mL) E. faecium OC3312
Description: as §1, §2, §3

| SMILES | MIC [1] [µg/mL] | MIC [2] [µg/mL] | MIC [3] [µg/mL] | MIC (μg/mL) MRSA OC 2878 [1] [µg/mL] | MIC (μg/mL) S. aureus Broth [2] [µg/mL] | MIC (μg/mL) E. faecium OC3312 ([3]; microdilution broth) [µg/mL] |
| --- | --- | --- | --- | --- | --- | --- |
| CC(=O)NC[C@H]1CN(c2ccc(OC3CCN(C(=O)CN4CCOCC4)CC3)c(F)c2)C(=O)O1 [Compound 56] | 32 (≈ 66.9 µM) | 32 (≈ 66.9 µM) | 32 (≈ 66.9 µM) |  |  |  |
| COc1cccc(C(=O)N2CCC(Oc3ccc(N4C[C@H](CNC(C)=O)OC4=O)cn3)CC2)c1 [Compound 48, (5S)-3-[6-{N-(3-Methoxybenzoyl)piperidinyl-4-oxy}-pyridin-3-yl]-5-methylacetamide-oxazolidin-2-one] | 32 (≈ 68.3 µM) | 64 (≈ 137 µM) | > 128 |  |  |  |
| CC(=O)NC[C@H]1CN(c2ccc(OC3CN(S(C)(=O)=O)C3)c(F)c2)C(=O)O1 [Compound 57, (S)-N-[[3-[3-Fluoro-4-{N-(methanesulfonyl)azetidinyl-3-oxy}phenyl]-2-oxo-5-oxazolidinyl]methyl]acetamide] | 16 (≈ 39.9 µM) | 16 (≈ 39.9 µM) | 16 (≈ 39.9 µM) |  |  |  |
| CC(=O)NC[C@H]1CN(c2ccc(OC3CCN(C(=O)COCc4ccccc4)CC3)nc2)C(=O)O1 [Compound 42, (5S)-3-[6-{N-(Benzyloxyacetyl)piperidinyl-4-oxy}-pyridin-3-yl]-5-methylacetamide-oxazolidin-2-one] | 32 (≈ 66.3 µM) | 32 (≈ 66.3 µM) | > 128 |  |  |  |
| CC(=O)NC[C@H]1CN(c2ccc(OC3CCN(C(C)=O)CC3)nc2)C(=O)O1 [Compound 43, (5S)-3-[6-{N-(Acetyl)piperidinyl-4-oxy}-pyridin-3-yl]-5-methylacetamide-oxazolidin-2-one] | 128 (≈ 340 µM) | 128 (≈ 340 µM) | > 128 |  |  |  |
| CC(=O)NC[C@H]1CN(c2ccc(OC3CCCN(C(=O)COCc4ccccc4)C3)c(F)c2)C(=O)O1 (stereo partly drawn) [Compound 35, (S)-N-[[3-[3-Fluoro-4-{N-(benzyloxyacetyl)piperidinyl-3-oxy}phenyl]-2-oxo-5-oxazolidinyl]methyl]acetamide] | 32 (≈ 64.1 µM) | 32 (≈ 64.1 µM) | 64 (≈ 128 µM) |  |  |  |
| CC(=O)OCC(=O)N1CC(Oc2ccc(N3C[C@H](CN(C(C)=O)C(=O)COC(C)=O)OC3=O)cc2F)C1 [Compound 60, (S)-N-[[3-[3-Fluoro-4-{N-(acetoxyacetyl)azetidinyl-3-oxy}phenyl]-2-oxo-5-oxazolidinyl]methyl]-N-[α-acetoxyacetyl]acetamide] | 16 (≈ 30.6 µM) | 8 (≈ 15.3 µM) | > 128 |  |  |  |
| CC(=O)NC[C@H]1CN(c2ccc(OC3CCN(C(=O)c4cccc(F)c4)CC3)nc2)C(=O)O1 [Compound 47, (5S)-3-[6-{N-(3-Fluorobenzoyl)piperidinyl-4-oxy}-pyridin-3-yl]-5-methylacetamide-oxazolidin-2-one] | 64 (≈ 140 µM) | 64 (≈ 140 µM) | > 128 |  |  |  |
| CC(=O)NC[C@H]1CN(c2ccc(OC3CCN(C(=O)COCc4ccccc4)CC3)c(F)c2)C(=O)O1 [Compound 3, (S)-N-[[3-[3-Fluoro-4-{N-(benzyloxyacetyl)piperidinyl-4-oxy}phenyl]-2-oxo-5-oxazolidinyl]methyl]acetamide] |  |  |  | 2 (≈ 4 µM) | 4 (≈ 8.01 µM) | 4 (≈ 8.01 µM) |
| CC(=O)NC[C@H]1CN(c2ccc(OC3CCN(C(=O)COCc4cccnc4)CC3)c(F)c2)C(=O)O1 [Compound 55] | 16 (≈ 32 µM) | 16 (≈ 32 µM) | 8 (≈ 16 µM) |  |  |  |
| CC(=O)NC[C@H]1CN(c2ccc(OC3CCN(C(=O)c4ccncc4)CC3)c(F)c2)C(=O)O1 [Compound 21, (S)-N-[[3-[3-Fluoro-4-{N-(4-pyridoyl)piperidinyl-4-oxy}phenyl]-2-oxo-5-oxazolidinyl]methyl]acetamide] | 32 (≈ 70.1 µM) | 32 (≈ 70.1 µM) | 64 (≈ 140 µM) |  |  |  |
| CC(=O)NC[C@H]1CN(c2ccc(OC3CCN(C(=O)C(NC(=O)OCc4ccccc4)C(C)C)CC3)nc2)C(=O)O1 (stereo partly drawn) [Compound 50] | 64 (≈ 113 µM) | > 64 | > 64 |  |  |  |
| CC(=O)NC[C@H]1CN(c2ccc(OC3CCN(C(=O)N(C)C)CC3)nc2)C(=O)O1 [Compound 49, (5S)-3-[6-{N-(Dimethylcarbamoyl)piperidinyl-4-oxy}-pyridin-3-yl]-5-methylacetamide-oxazolidin-2-one] | 128 (≈ 316 µM) | > 64 | > 128 |  |  |  |
| CC(=O)NC[C@H]1CN(c2ccc(OC3CCN(C(=O)c4ccc(C#N)cc4)CC3)nc2)C(=O)O1 [Compound 45, (5S)-3-[6-{N-(4-Cyanobenzoyl)piperidinyl-4-oxy}-pyridin-3-yl]-5-methylacetamide-oxazolidin-2-one] | 64 (≈ 138 µM) | 64 (≈ 138 µM) | 128 (≈ 276 µM) |  |  |  |

Now from value to compound:

| MIC [1] [µg/mL] | MIC [2] [µg/mL] | MIC [3] [µg/mL] | MIC (μg/mL) MRSA OC 2878 [1] [µg/mL] | MIC (μg/mL) S. aureus Broth [2] [µg/mL] | MIC (μg/mL) E. faecium OC3312 ([3]; microdilution broth) [µg/mL] | SMILES |
| --- | --- | --- | --- | --- | --- | --- |
| 16 (≈ 40.9 µM) | 16 (≈ 40.9 µM) | 32 (≈ 81.8 µM) |  |  |  | CC(=O)NC[C@H]1CN(c2ccc(OC3CCN(C(=O)CO)CC3)cc2)C(=O)O1 [Compound 31, (S)-N-[[3-[4-{N-(α-Hydroxyacetyl)piperidinyl-4-oxy}phenyl]-2-oxo-5-oxazolidinyl]methyl]acetamide] |
| 8 (≈ 16.5 µM) | 16 (≈ 33.1 µM) | 16 (≈ 33.1 µM) |  |  |  | CC(=O)NC[C@H]1CN(c2ccc(OC3CCN(C(=O)CCc4ccccc4)CC3)c(F)c2)C(=O)O1 [Compound 28, (S)-N-[[3-[3-Fluoro-4-{N-(3-phenyl-propionyl)piperidinyl-4-oxy}phenyl]-2-oxo-5-oxazolidinyl]methyl]acetamide] |
| 4 (≈ 9.77 µM) | 4 (≈ 9.77 µM) | 8 (≈ 19.5 µM) |  |  |  | CC(=O)NC[C@H]1CN(c2ccc(OC3CCN(C(=O)CO)CC3)c(F)c2)C(=O)O1 [Compound 4, (S)-N-[[3-[3-Fluoro-4-{N-(α-hydroxyacetyl)piperidinyl-4-oxy}phenyl]-2-oxo-5-oxazolidinyl]methyl]acetamide] |
| 8 (≈ 16 µM) | 8 (≈ 16 µM) | 8 (≈ 16 µM) |  |  |  | CC(=O)NC[C@H]1CN(c2ccc(OC3CCN(C(=O)COCc4ccncc4)CC3)c(F)c2)C(=O)O1 [Compound 54] |
| 8 (≈ 14.7 µM) | 8 (≈ 14.7 µM) | 8 (≈ 14.7 µM) |  |  |  | CC(=O)NC[C@H]1CN(c2ccc(OC3CCN(C(=O)CNC(=O)OCc4ccccc4)CC3)c(F)c2)C(=O)O1 [Compound 15] |
| 16 (≈ 38.9 µM) | 16 (≈ 38.9 µM) | 32 (≈ 77.8 µM) |  |  |  | CC(=O)NC[C@H]1CN(c2ccc(OC3CCN(S(C)(=O)=O)CC3)cc2)C(=O)O1 [Compound 33, (S)-N-[[3-[4-{N-(Methanesulfonyl)piperidinyl-4-oxy}phenyl]-2-oxo-5-oxazolidinyl]methyl]acetamide] |
| 8 (≈ 20.3 µM) | 8 (≈ 20.3 µM) | 16 (≈ 40.7 µM) |  |  |  | CC(=O)NC[C@H]1CN(c2ccc(OC3CCCN(C(C)=O)C3)c(F)c2)C(=O)O1 (stereo partly drawn) [Compound 37, (S)-N-[[3-[3-Fluoro-4-{N-(acetyl)piperidinyl-3-oxy}phenyl]-2-oxo-5-oxazolidinyl]methyl]acetamide] |
| 8 (≈ 18.9 µM) | 8 (≈ 18.9 µM) | 16 (≈ 37.8 µM) |  |  |  | COCC(=O)N1CCC(Oc2ccc(N3C[C@H](CNC(C)=O)OC3=O)cc2F)CC1 [Compound 5, (S)-N-[[3-[3-Fluoro-4-{N-(methoxyacetyl)piperidinyl-4-oxy}phenyl]-2-oxo-5-oxazolidinyl]methyl]acetamide] |
| 8 (≈ 20.3 µM) | 8 (≈ 20.3 µM) | 16 (≈ 40.7 µM) |  |  |  | CC(=O)NC[C@H]1CN(c2ccc(OC3CCN(C(C)=O)CC3)c(F)c2)C(=O)O1 [Compound 7, (S)-N-[[3-[3-Fluoro-4-{N-(acetyl)piperidinyl-4-oxy}phenyl]-2-oxo-5-oxazolidinyl]methyl]acetamide] |
| 8 (≈ 21.3 µM) | 16 (≈ 42.6 µM) | 32 (≈ 85.2 µM) |  |  |  | CC(=O)NC[C@H]1CN(c2ccc(OC3CCN(C(C)=O)CC3)cc2)C(=O)O1 [Compound 32, (S)-N-[[3-[4-{N-(Acetyl)piperidinyl-4-oxy}phenyl]-2-oxo-5-oxazolidinyl]methyl]acetamide] |
| 8 (≈ 17.9 µM) | 8 (≈ 17.9 µM) | 4 (≈ 8.96 µM) |  |  |  | CC(=O)NC[C@H]1CN(c2ccc(OC3CCN(C(=O)c4ccno4)CC3)c(F)c2)C(=O)O1 [Compound 52, (S)-N-[[3-[3-Fluoro-4-{N-(5-isoxazolylcarbonyl)piperdinyl-4-oxy}phenyl]-2-oxo-5-oxazolidinyl]methyl]acetamide] |
| 8 (≈ 19.5 µM) | 8 (≈ 19.5 µM) | 16 (≈ 39.1 µM) |  |  |  | CC(=O)NC[C@H]1CN(c2ccc(OC3CCCN(C(=O)CO)C3)c(F)c2)C(=O)O1 (stereo partly drawn) [Compound 36, (S)-N-[[3-[3-Fluoro-4-{N-(α-hydroxyacetyl)piperidinyl-3-oxy}phenyl]-2-oxo-5-oxazolidinyl]methyl]acetamide] |
| 8 (≈ 16.5 µM) | 8 (≈ 16.5 µM) | 16 (≈ 33 µM) |  |  |  | COc1ccc(C(=O)N2CCC(Oc3ccc(N4C[C@H](CNC(C)=O)OC4=O)cc3F)CC2)cc1 [Compound 13, (S)-N-[[3-[3-Fluoro-4-{N-(4-methoxybenzoyl)piperidinyl-4-oxy}phenyl]-2-oxo-5-oxazolidinyl]methyl]acetamide] |
| 4 (≈ 9.77 µM) | 8 (≈ 19.5 µM) | 8 (≈ 19.5 µM) |  |  |  | COC(=O)N1CCC(Oc2ccc(N3C[C@H](CNC(C)=O)OC3=O)cc2F)CC1 [Compound 8, (S)-N-[[3-[3-fluoro-4-{N-(methoxycarbonyl)piperidinyl-4-oxy}phenyl]-2-oxo-5-oxazolidinyl]methyl]acetamide] |
